Measured values from patent publication US20240008491A1, “PESTICIDE COMPOSITION FOR C[…] CROWN ROT AND APPLICATION” (priority 2022, published 2024).
In brackets after ≈: the same amount, converted by molar mass.

Tested on: wheat crown rot
Experiment: indoor toxicity test (growth rate method)
Assay type: cell-based
Settings: toxicity to wheat crown rot
Protocol: The method of combining indoor toxicity test and field experiment is adopted.
First of all, co-toxicity coefficients of the complex pesticide of different proportions to wheat crown rot are obtained through indoor toxicity test (growth rate method); and then, the control effect is determined through field efficacy test, and the formula proportion and optimal application amount of the complex pesticide are determined.

`C=CCOC(Cn1ccnc1)c1ccc(Cl)cc1Cl` (centres unmarked) [Imazalil (B), Imazalil] showed an EC50 of 0.175 mg/L (≈ 0.589 µM).

For `OC(Cc1ccccc1Cl)(Cn1nc[nH]c1=S)C1(Cl)CC1` (centres unmarked) [Prothioconazole (A), Prothioconazole], the EC50 was 1.37 mg/L (≈ 3.98 µM).
